Read-outs that look alike come from different tables or passages of the source.
Tests used:
[1] = test system: MOLM14 D835Y cells; assay: cells; format: cell-based; conditions: 48 hours, Cell Titer Glo, read-out: MOLM14 D835Y IC50
[2] = test system: MOLM14 F691L cells; assay: cells; format: cell-based; conditions: 48 hours, Cell Titer Glo, read-out: MOLM14 F691L IC50
[3] = target: T1, FLT3 (Homo sapiens, UniProt P36888); assay: RBC HotSpot Kinase Assay, FLT3
T1 sequence (P36888 610-943 limits assumed): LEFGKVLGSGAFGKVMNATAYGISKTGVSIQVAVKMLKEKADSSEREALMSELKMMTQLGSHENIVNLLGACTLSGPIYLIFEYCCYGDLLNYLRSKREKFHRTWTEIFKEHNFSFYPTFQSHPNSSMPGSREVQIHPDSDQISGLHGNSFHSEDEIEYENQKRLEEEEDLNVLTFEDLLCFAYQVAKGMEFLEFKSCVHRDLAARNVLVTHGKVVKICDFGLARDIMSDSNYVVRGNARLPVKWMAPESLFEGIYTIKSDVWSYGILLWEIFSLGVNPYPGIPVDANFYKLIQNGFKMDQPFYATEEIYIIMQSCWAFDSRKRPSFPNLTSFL

[4] = target: IRAK1 (Homo sapiens, UniProt P51617); assay: RBC HotSpot Kinase Assay, IRAK1; conditions: IRAK1 IC50
[5] = target: T2, IRAK4 (Homo sapiens, UniProt Q9NWZ3); assay: RBC HotSpot Kinase Assay, IRAK4; conditions: IRAK4 IC50
T2 sequence (Q9NWZ3 1-460): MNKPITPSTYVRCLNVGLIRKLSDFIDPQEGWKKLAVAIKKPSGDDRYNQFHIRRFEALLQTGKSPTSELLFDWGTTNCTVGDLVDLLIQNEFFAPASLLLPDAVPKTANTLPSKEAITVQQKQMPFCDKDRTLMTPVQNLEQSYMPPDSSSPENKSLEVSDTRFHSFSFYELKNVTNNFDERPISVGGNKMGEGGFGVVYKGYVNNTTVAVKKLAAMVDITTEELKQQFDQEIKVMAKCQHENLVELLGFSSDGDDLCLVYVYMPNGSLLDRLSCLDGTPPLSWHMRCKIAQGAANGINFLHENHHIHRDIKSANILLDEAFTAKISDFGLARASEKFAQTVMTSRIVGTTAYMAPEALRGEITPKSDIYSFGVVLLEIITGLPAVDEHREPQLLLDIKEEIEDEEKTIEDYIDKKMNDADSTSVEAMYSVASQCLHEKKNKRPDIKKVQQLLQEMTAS

[6] = target: T3, FLT3 (Homo sapiens, UniProt P36888); assay: Reaction Biology NanoBRET target engagement assay in HEK-293 cells, FLT3
T3 sequence (P36888 27-993): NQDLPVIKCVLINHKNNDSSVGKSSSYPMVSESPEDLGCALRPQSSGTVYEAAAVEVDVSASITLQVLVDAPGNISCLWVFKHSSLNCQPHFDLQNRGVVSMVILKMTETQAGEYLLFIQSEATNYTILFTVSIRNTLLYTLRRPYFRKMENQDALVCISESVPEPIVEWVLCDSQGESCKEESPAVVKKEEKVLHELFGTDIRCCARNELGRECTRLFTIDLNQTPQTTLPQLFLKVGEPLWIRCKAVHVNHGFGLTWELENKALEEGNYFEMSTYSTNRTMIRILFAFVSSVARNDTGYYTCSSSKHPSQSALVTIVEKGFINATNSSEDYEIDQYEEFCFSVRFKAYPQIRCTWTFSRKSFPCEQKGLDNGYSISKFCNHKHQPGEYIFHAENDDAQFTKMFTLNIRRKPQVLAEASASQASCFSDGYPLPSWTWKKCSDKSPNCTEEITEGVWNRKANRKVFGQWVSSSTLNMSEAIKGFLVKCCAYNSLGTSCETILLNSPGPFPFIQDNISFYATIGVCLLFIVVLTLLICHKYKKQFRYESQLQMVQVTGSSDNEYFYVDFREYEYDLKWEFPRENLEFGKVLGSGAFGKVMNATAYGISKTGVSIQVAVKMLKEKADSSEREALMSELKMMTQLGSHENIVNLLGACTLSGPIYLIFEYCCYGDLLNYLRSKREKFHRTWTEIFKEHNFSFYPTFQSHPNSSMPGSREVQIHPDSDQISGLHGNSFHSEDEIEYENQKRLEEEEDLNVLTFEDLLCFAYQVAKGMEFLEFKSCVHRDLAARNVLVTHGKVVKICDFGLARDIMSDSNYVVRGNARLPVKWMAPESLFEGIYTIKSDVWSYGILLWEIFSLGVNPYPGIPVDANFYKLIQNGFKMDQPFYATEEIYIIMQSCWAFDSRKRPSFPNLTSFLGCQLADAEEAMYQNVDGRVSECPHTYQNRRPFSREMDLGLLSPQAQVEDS

[7] = target: T2, IRAK4; assay: Reaction Biology NanoBRET target engagement assay in HEK-293 cells, IRAK4; conditions: NanoBRET IRAK4 IC50, HEK-293 cells
[8] = NanoBRET FLT3 IC50, HEK-293 cells

Chain of IRAK1 (P51617 whole entry): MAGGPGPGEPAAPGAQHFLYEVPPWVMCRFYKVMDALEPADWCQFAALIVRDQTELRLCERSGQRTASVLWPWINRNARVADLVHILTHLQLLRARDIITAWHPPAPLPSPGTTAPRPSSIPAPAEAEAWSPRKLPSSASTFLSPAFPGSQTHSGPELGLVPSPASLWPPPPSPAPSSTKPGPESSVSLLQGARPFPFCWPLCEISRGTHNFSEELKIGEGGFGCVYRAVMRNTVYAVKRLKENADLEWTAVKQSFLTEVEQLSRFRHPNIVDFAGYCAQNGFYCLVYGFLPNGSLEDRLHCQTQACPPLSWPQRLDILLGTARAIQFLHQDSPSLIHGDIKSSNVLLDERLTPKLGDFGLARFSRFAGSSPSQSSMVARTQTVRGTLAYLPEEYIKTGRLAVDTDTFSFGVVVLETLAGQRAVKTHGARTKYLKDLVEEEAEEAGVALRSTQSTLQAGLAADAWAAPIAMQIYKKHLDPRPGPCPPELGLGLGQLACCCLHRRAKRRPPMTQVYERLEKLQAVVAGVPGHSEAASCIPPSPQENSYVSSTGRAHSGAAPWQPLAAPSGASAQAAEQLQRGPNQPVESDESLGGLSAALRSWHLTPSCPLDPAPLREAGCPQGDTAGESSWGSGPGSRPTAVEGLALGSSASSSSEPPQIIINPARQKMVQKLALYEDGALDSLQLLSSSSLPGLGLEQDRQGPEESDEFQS

CC(O)(c1cn2c(-c3ccnc(N[C@@H]4CCCNC4)n3)cnc2cn1)C(F)(F)F (single isomer, unassigned) [Compound 68]
IC50 [1]: 86 nM
IC50 [2]: 545 nM
IC50 ([3]; read-out: FLT3 IC50): < 0.5 nM
IC50 [4]: 7 nM
IC50 [5]: 4 nM
IC50 [6]: 388 nM
IC50 [7]: 3 nM

CC(O)(c1cn2c(-c3ccnc(N[C@H]4CNC[C@@H]4F)n3)cnc2cn1)C(F)(F)F (single isomer, unassigned) [Compound 69]
IC50 [1]: 193 nM
IC50 ([2]; Homo sapiens, MOLM-14, 48 h): 1220 nM
IC50 ([3]; FLT3 IC50): < 0.5 nM
IC50 [4]: 27 nM
IC50 [5]: 1 nM
IC50 [6, 8]: 1950 nM
IC50 [7]: 24 nM

CC(O)(c1cn2c(-c3ccnc(N[C@H]4CNCC[C@@H]4F)n3)cnc2cn1)C(F)(F)F (single isomer, unassigned) [Compound 70]
IC50 ([3]; read-out: FLT3 IC50): < 0.5 nM
IC50 [4]: 12 nM
IC50 [5]: 43 nM
IC50 [6, 8]: 1120 nM
IC50 [7]: 29 nM

CC(O)(c1cn2c(-c3cncc(N[C@H]4CNCC[C@@H]4F)n3)cnc2cn1)C(F)(F)F (single isomer, unassigned) [Compound 76]
IC50 [1]: 486 nM
IC50 ([2]; Homo sapiens, MOLM-14, 48 h): 686 nM
IC50 ([3]; FLT3 IC50): < 0.5 nM
IC50 [4]: 8 nM
IC50 [5]: 2 nM
IC50 [6, 8]: 3860 nM
IC50 [7]: 19 nM

FC(F)COc1ccn2c(-c3cncc(N[C@H]4CNCC[C@@H]4F)n3)cnc2c1 [Compound 9, 6-(7-(2,2-difluoroethoxy)imidazo[1,2-a]pyridin-3-yl)-N-((3S,4S)-4-fluoropiperidin-3-yl)pyrazin-2-amine]
IC50 ([1]; Homo sapiens, MOLM-14, 48 h): 19 nM
IC50 ([2]; Homo sapiens, MOLM-14, 48 h): 31 nM
IC50 ([3]; FLT3 IC50): < 0.5 nM
IC50 [4]: 65 nM
IC50 [5]: 1 nM
IC50 [6, 8]: 22 nM
IC50 [7]: < 0.5 nM

FC(F)Oc1ccn2c(-c3cncc(N[C@H]4CNCC[C@@H]4F)n3)cnc2c1 [Compound 15, 6-(7-(difluoromethoxy)imidazo [1,2-a]pyridin-3-yl)-N-((3S,4S)-4-fluoropiperidin-3-yl)pyrazin-2-amine]
IC50 ([1]; Homo sapiens, MOLM-14, 48 h): 77 nM
IC50 ([2]; Homo sapiens, MOLM-14, 48 h): 154 nM
IC50 ([3]; FLT3 IC50): < 0.5 nM
IC50 [4]: 69 nM
IC50 [5]: 4 nM
IC50 [6, 8]: 367 nM
IC50 [7]: 10 nM

CC(C)(O)c1ccc2ncc(-c3cncc(N[C@H]4CNCC[C@@H]4F)n3)n2c1 [Compound 18, 2-(3-(6-(((3S,4S)-4-fluoropiperidin-3-yl)amino)pyrazin-2-yl)imidazo[1,2-a]pyridin-6-yl)propan-2-ol]
IC50 ([3]; FLT3 IC50): 1 nM
IC50 [4]: 116 nM
IC50 [5]: 3 nM
IC50 [6, 8]: 2820 nM
IC50 [7]: 0.8 nM

COc1cc2ncc(-c3cncc(N[C@H]4CNCC[C@@H]4F)n3)n2cc1C(C)(C)O [Compound 21, 2-(3-(6-(((3S,4S)-4-fluoropiperidin-3-yl)amino)pyrazin-2-yl)-7-methoxyimidazo[1,2-a]pyridin-6-yl)propan-2-ol]
IC50 ([1]; Homo sapiens, MOLM-14, 48 h): 27 nM
IC50 ([2]; Homo sapiens, MOLM-14, 48 h): 34 nM
IC50 ([3]; FLT3 IC50): < 0.5 nM
IC50 [4]: 0.5 nM
IC50 [5]: < 0.5 nM
IC50 [6, 8]: 159 nM
IC50 [7]: < 0.5 nM

CC(C)Oc1ccn2c(-c3ccnc(N[C@H]4CNC[C@@H]4F)n3)cnc2c1 [Compound 25, N-((3S,4S)-4-fluoropyrrolidin-3-yl)-4-(7-isopropoxyimidazo[1,2-a]pyridin-3-yl)pyrimidin-2-amine]
IC50 ([1]; Homo sapiens, MOLM-14, 48 h): 53 nM
IC50 ([2]; Homo sapiens, MOLM-14, 48 h): 596 nM
IC50 ([3]; FLT3 IC50): 0.8 nM
IC50 [4]: 24 nM
IC50 [5]: 3 nM
IC50 [6, 8]: 34 nM
IC50 [7]: < 0.5 nM

CC(C)Oc1ccn2c(-c3ccnc(N[C@@H]4CCCNC4)n3)cnc2c1 [Compound 26, (R)-4-(7-isopropoxyimidazo[1,2-a]pyridin-3-yl)-N-(piperidin-3-yl)pyrimidin-2-amine]
IC50 ([1]; Homo sapiens, MOLM-14, 48 h): 19 nM
IC50 ([2]; Homo sapiens, MOLM-14, 48 h): 168 nM
IC50 ([3]; FLT3 IC50): < 0.5 nM
IC50 [4]: 53 nM
IC50 [5]: 2 nM
IC50 [6, 8]: 2 nM
IC50 [7]: < 0.5 nM

F[C@H]1CCNC[C@@H]1Nc1nccc(-c2cnc3cc(OC4CC4)ccn23)n1 [Compound 39, 4-(7-cyclopropoxyimidazo [1,2-a]pyridin-3-yl)-N-((3S,4S)-4-fluoropiperidin-3-yl)pyrimidin-2-amine]
IC50 ([1]; Homo sapiens, MOLM-14, 48 h): 24 nM
IC50 ([2]; Homo sapiens, MOLM-14, 48 h): 172 nM
IC50 ([3]; FLT3 IC50): < 0.5 nM
IC50 [4]: 11 nM
IC50 [5]: 2 nM
IC50 [6, 8]: 15 nM
IC50 [7]: 0.8 nM

CC(C)(O)c1ccc2ncc(-c3ccnc(N[C@H]4CNCC[C@@H]4F)n3)n2c1 [Compound 42, 2-(3-(2-(((3S,4S)-4-fluoropiperidin-3-yl)amino)pyrimidin-4-yl)imidazo[1,2-a]pyridin-6-yl)propan-2-ol]
IC50 ([3]; FLT3 IC50): < 0.5 nM
IC50 [4]: 158 nM
IC50 [5]: 4 nM
IC50 [6, 8]: 137 nM
IC50 [7]: 2 nM

Reference: US20250154144A1 (CHILDREN'S HOSPITAL MEDICAL CENTER, priority 2021, published 2025)
